Measured values taken from patent US11498899B2, “Nitrone herbicides” (FMC Corporation, priority 2016, dated 2022).

Tests used:
[1] = tested on: barnyardgrass (Echinochloa crus-galli); assay: Test B flooded paddy test, visual rating 0-100; conditions: Flood, 250 g ai/ha, applied to paddy water, rated after 13 to 15 days
[2] = tested on: ducksalad (Heteranthera limosa); assay: Test B flooded paddy test, visual rating 0-100; conditions: Flood, 250 g ai/ha, applied to paddy water, rated after 13 to 15 days
rice (Oryza sativa) = assay: Test B flooded paddy test, visual rating 0-100 (0 no effect, 100 complete control); conditions: Flood, 250 g ai/ha, applied to paddy water, rated after 13 to 15 days
[3] = tested on: pigweed (Amaranthus retroflexus); assay: Test A postemergence, visual injury rating 0-100; type: in vivo; conditions: 0 to 100 scale
kochia (Kochia scoparia) [4] = assay: Test A postemergence, visual injury rating 0-100; type: in vivo; conditions: 0 to 100 scale
[5] = tested on: galium (catchweed bedstraw, Galium aparine); assay: Test A postemergence, visual injury rating 0-100; type: in vivo; conditions: 0 to 100 scale
[6] = tested on: barnyardgrass (Echinochloa crus-galli); assay: Test A postemergence, visual injury rating 0-100; type: in vivo; conditions: 0 to 100 scale
[7] = tested on: ragweed (common ragweed, Ambrosia elatior); assay: Test A postemergence, visual injury rating 0-100; type: in vivo; conditions: 0 to 100 scale
[8] = tested on: wheat (Triticum aestivum); assay: Test A postemergence, visual injury rating 0-100; type: in vivo; conditions: 0 to 100 scale
[9] = tested on: blackgrass (Alopecurus myosuroides); assay: Test A postemergence, visual injury rating 0-100; type: in vivo; conditions: 0 to 100 scale
corn (Zea mays) = assay: Test A postemergence, visual injury rating 0-100; type: in vivo; conditions: 0 to 100 scale
[10] = tested on: foxtail, giant (giant foxtail, Setaria faberii); assay: Test A postemergence, visual injury rating 0-100; type: in vivo; conditions: 0 to 100 scale
[11] = tested on: ryegrass, Italian (Italian ryegrass, Lolium multiflorum); assay: Test A postemergence, visual injury rating 0-100; type: in vivo; conditions: 0 to 100 scale
[12] = tested on: barnyardgrass (Echinochloa crus-galli); assay: Test A preemergence, visual injury rating 0-100 (0 no effect, 100 complete control); type: in vivo
[13] = tested on: pigweed (Amaranthus retroflexus); assay: Test A preemergence, visual injury rating 0-100; type: in vivo
kochia (Kochia scoparia) [14] = assay: Test A preemergence, visual injury rating 0-100; type: in vivo
[15] = tested on: ragweed (common ragweed, Ambrosia elatior); assay: Test A preemergence, visual injury rating 0-100; type: in vivo
[16] = tested on: foxtail, giant (giant foxtail, Setaria faberii); assay: Test A preemergence, visual injury rating 0-100; type: in vivo
[17] = tested on: ryegrass, Italian (Italian ryegrass, Lolium multiflorum); assay: Test A preemergence, visual injury rating 0-100; type: in vivo
[18] = 125 g ai/ha, 0 to 100 scale (0 no effect, 100 complete control), approx. 10 days

Row | SMILES | Barnyardgrass plant response rating (0 to 100 scale) [1] | Ducksalad plant response rating (0 to 100 scale) [2] | Rice plant response rating (0 to 100 scale) (rice (Oryza sativa)) | Pigweed plant response rating ([3]; 125 g ai/ha) | Pigweed plant response rating ([3]; 500 g ai/ha) | Kochia plant response rating (kochia (Kochia scoparia) [4]; 125 g ai/ha) | Kochia plant response rating (kochia (Kochia scoparia) [4]; 500 g ai/ha) | Galium plant response rating ([5]; 125 g ai/ha) | Galium plant response rating ([5]; 500 g ai/ha) | Barnyardgrass plant response rating ([6]; 125 g ai/ha) | Barnyardgrass plant response rating ([6]; 500 g ai/ha) | Ragweed plant response rating ([7]; 125 g ai/ha) | Ragweed plant response rating ([7]; 500 g ai/ha) | Wheat plant response rating ([8]; 125 g ai/ha) | Wheat plant response rating ([8]; 500 g ai/ha) | Blackgrass plant response rating ([9]; 125 g ai/ha) | Blackgrass plant response rating ([9]; 500 g ai/ha) | Corn plant response rating (corn (Zea mays); 125 g ai/ha) | Corn plant response rating (corn (Zea mays); 500 g ai/ha) | Foxtail, Giant plant response rating ([10]; 125 g ai/ha) | further results
1 | CC1=[N+]([O-])C(C(=O)Nc2cccc(F)c2F)C(c2ccc(=O)n(Cc3ccc(Cl)cc3)c2)C1 (racemic) [Compound 119] | 0 | 0 | 0 | 0 | 0 | 0 | 0 | 0 | 0 | 0 | 0 | 0 | 0 | 0 | 0 | 0 | 0 | 0 | 0 | 0 | Foxtail, Giant plant response rating ([10]; 500 g ai/ha): 0; Ryegrass, Italian plant response rating ([11]; 125 g ai/ha): 10; Ryegrass, Italian plant response rating ([11]; 500 g ai/ha): 20; Barnyardgrass plant response rating [12, 18]: 0; Barnyardgrass plant response rating (0 to 100 scale) ([12]; 500 g ai/ha): 0; Pigweed plant response rating [13, 18]: 0; Pigweed plant response rating (0 to 100 scale) ([13]; 500 g ai/ha): 0; Kochia plant response rating (kochia (Kochia scoparia) [14]; [18]): 0; Kochia plant response rating (0 to 100 scale) (kochia (Kochia scoparia) [14]; 500 g ai/ha): 0; Ragweed plant response rating [15, 18]: 0; Foxtail, Giant plant response rating [16, 18]: 0; Foxtail, Giant plant response rating (0 to 100 scale) ([16]; 500 g ai/ha): 0; Ryegrass, Italian plant response rating [17, 18]: 0; Ryegrass, Italian plant response rating (0 to 100 scale) ([17]; 500 g ai/ha): 0
2 | CCC1=[N+]([O-])C(C(=O)Nc2cccc(F)c2F)C(c2ccc(C(F)(F)F)cc2)C1 (racemic) [Compound 120] | 15 | 70 | 0 | 10 | 20 | 0 | 30 | 20 | 50 | 20 | 70 | 0 | 40 | 0 | 0 | 0 | 20 | 0 | 0 | 0 | Foxtail, Giant plant response rating ([10]; 500 g ai/ha): 80; Ryegrass, Italian plant response rating ([11]; 125 g ai/ha): 0; Ryegrass, Italian plant response rating ([11]; 500 g ai/ha): 0; Barnyardgrass plant response rating [12, 18]: 80; Barnyardgrass plant response rating (0 to 100 scale) ([12]; 500 g ai/ha): 90; Pigweed plant response rating [13, 18]: 30; Pigweed plant response rating (0 to 100 scale) ([13]; 500 g ai/ha): 60; Kochia plant response rating (kochia (Kochia scoparia) [14]; [18]): 0; Kochia plant response rating (0 to 100 scale) (kochia (Kochia scoparia) [14]; 500 g ai/ha): 70; Ragweed plant response rating (0 to 100 scale) ([15]; 500 g ai/ha): 80; Foxtail, Giant plant response rating [16, 18]: 70; Foxtail, Giant plant response rating (0 to 100 scale) ([16]; 500 g ai/ha): 90; Ryegrass, Italian plant response rating [17, 18]: 0; Ryegrass, Italian plant response rating (0 to 100 scale) ([17]; 500 g ai/ha): 70
3 | CC(C)C1=[N+]([O-])C(C(=O)Nc2cccc(F)c2F)C(c2ccc(C(F)(F)F)cc2)C1 (racemic) [Compound 122] | 0 | 0 | 0 | 0 | 0 | 0 | 0 | 0 | 0 | 0 | 0 | 0 | 0 | 0 | 0 | 0 | 0 | 0 | 0 | 0 | Foxtail, Giant plant response rating ([10]; 500 g ai/ha): 0; Ryegrass, Italian plant response rating ([11]; 125 g ai/ha): 0; Ryegrass, Italian plant response rating ([11]; 500 g ai/ha): 0; Barnyardgrass plant response rating [12, 18]: 0; Barnyardgrass plant response rating (0 to 100 scale) ([12]; 500 g ai/ha): 0; Pigweed plant response rating [13, 18]: 0; Pigweed plant response rating (0 to 100 scale) ([13]; 500 g ai/ha): 0; Kochia plant response rating (kochia (Kochia scoparia) [14]; [18]): 0; Kochia plant response rating (0 to 100 scale) (kochia (Kochia scoparia) [14]; 500 g ai/ha): 0; Ragweed plant response rating [15, 18]: 0; Ragweed plant response rating (0 to 100 scale) ([15]; 500 g ai/ha): 0; Foxtail, Giant plant response rating [16, 18]: 0; Foxtail, Giant plant response rating (0 to 100 scale) ([16]; 500 g ai/ha): 0; Ryegrass, Italian plant response rating [17, 18]: 0; Ryegrass, Italian plant response rating (0 to 100 scale) ([17]; 500 g ai/ha): 0
4 | CC1=[N+]([O-])[C@@H](C(=O)Nc2cccc(F)c2F)[C@H](c2ccc(C(F)(F)F)cc2)C1 (relative stereo) [Compound 2, trans-N-(2,3-difluorophenyl)-3,4-dihydro-5-methyl-3-[4-(trifluoromethyl)phenyl]-2H-pyrrole-2-carboxamide 1-oxide] | 70 | 90 | 0 | 40 | 80 | 40 | 80 | 70 | 70 | 70 | 90 | 30 | 60 | 40 | 70 | 20 | 90 | 40 | 80 | 90 | Foxtail, Giant plant response rating ([10]; 500 g ai/ha): 90; Ryegrass, Italian plant response rating ([11]; 125 g ai/ha): 60; Ryegrass, Italian plant response rating ([11]; 500 g ai/ha): 70; Barnyardgrass plant response rating (0 to 100 scale) ([12]; 125 g ai/ha): 90; Barnyardgrass plant response rating ([12]; 500 g ai/ha, 0 to 100 scale): 100; Pigweed plant response rating (0 to 100 scale) ([13]; 125 g ai/ha): 90; Pigweed plant response rating ([13]; 500 g ai/ha, 0 to 100 scale): 90; Kochia plant response rating (0 to 100 scale) (kochia (Kochia scoparia) [14]; 125 g ai/ha): 90; Kochia plant response rating (kochia (Kochia scoparia) [14]; 500 g ai/ha, 0 to 100 scale): 80; Ragweed plant response rating (0 to 100 scale) ([15]; 125 g ai/ha): 40; Ragweed plant response rating ([15]; 500 g ai/ha, 0 to 100 scale): 90; Foxtail, Giant plant response rating (0 to 100 scale) ([16]; 125 g ai/ha): 100; Foxtail, Giant plant response rating ([16]; 500 g ai/ha, 0 to 100 scale): 100; Ryegrass, Italian plant response rating (0 to 100 scale) ([17]; 125 g ai/ha): 30; Ryegrass, Italian plant response rating ([17]; 500 g ai/ha, 0 to 100 scale): 50
5 | CC1=[N+]([O-])[C@@H](C(=O)Nc2cccc(F)c2F)[C@H](c2ccc(Cl)cc2)C1 (relative stereo) [Compound 5, trans-3-(4-chlorophenyl)-N-(2,3-difluorophenyl)-3,4-dihydro-5-methyl-2H-pyrrole-2-carboxamide 1-oxide] | 65 | 100 | 0 | 40 | 70 | 60 | 70 | 50 | 80 | 90 | 90 | 30 | 70 | 20 | 80 | 20 | 50 | 0 | 50 | 60 | Foxtail, Giant plant response rating ([10]; 500 g ai/ha): 70; Ryegrass, Italian plant response rating ([11]; 125 g ai/ha): 0; Ryegrass, Italian plant response rating ([11]; 500 g ai/ha): 30; Barnyardgrass plant response rating (0 to 100 scale) ([12]; 125 g ai/ha): 100; Barnyardgrass plant response rating ([12]; 500 g ai/ha, 0 to 100 scale): 100; Pigweed plant response rating (0 to 100 scale) ([13]; 125 g ai/ha): 50; Pigweed plant response rating ([13]; 500 g ai/ha, 0 to 100 scale): 90; Kochia plant response rating (0 to 100 scale) (kochia (Kochia scoparia) [14]; 125 g ai/ha): 10; Kochia plant response rating (kochia (Kochia scoparia) [14]; 500 g ai/ha, 0 to 100 scale): 60; Ragweed plant response rating (0 to 100 scale) ([15]; 125 g ai/ha): 50; Ragweed plant response rating ([15]; 500 g ai/ha, 0 to 100 scale): 90; Foxtail, Giant plant response rating (0 to 100 scale) ([16]; 125 g ai/ha): 100; Foxtail, Giant plant response rating ([16]; 500 g ai/ha, 0 to 100 scale): 100; Ryegrass, Italian plant response rating (0 to 100 scale) ([17]; 125 g ai/ha): 10; Ryegrass, Italian plant response rating ([17]; 500 g ai/ha, 0 to 100 scale): 80
